Laboratory results taken from BindingDB's records for doi:10.1124/jpet.104.077321 (I.G.B.M.C., 2005).
Where a SMILES comes first, the peptide text is derived from it.

What follows are compounds tested against Delta-type opioid receptor (Homo sapiens, UniProt P41143).
Chain of Delta-type opioid receptor (P41143 whole entry): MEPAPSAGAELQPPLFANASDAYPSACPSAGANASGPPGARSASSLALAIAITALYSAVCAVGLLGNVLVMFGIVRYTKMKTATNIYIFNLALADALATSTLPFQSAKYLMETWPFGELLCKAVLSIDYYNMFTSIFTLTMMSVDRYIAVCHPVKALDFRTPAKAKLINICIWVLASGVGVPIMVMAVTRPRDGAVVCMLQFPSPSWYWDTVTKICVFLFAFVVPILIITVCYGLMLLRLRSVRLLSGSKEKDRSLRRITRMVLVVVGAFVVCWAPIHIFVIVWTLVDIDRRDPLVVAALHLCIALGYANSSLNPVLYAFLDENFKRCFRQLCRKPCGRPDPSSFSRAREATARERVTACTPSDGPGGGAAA

SMILES	Ki
CCO[C@@]12Cc3c([nH]c4ccccc34)[C@]3(C)Oc4c(O)ccc5c4C31CCN(CC1CC1)C2C5 (stereo partly specified) [HS378]	0.4 nM
N[C@@H](Cc1ccc(O)cc1)C(=O)N1Cc2ccccc2C[C@H]1C(=O)N[C@@H](Cc1ccccc1)C(=O)N[C@@H](Cc1ccccc1)C(=O)O [TIPP] (HELM PEPTIDE1{Y.[Tic].F.F}$$$$V2.0)	2.9 nM
C=CCN1CCC23c4c5ccc(O)c4OC2c2[nH]c4ccccc4c2C[C@@]3(OCC)C1C5 (stereo partly specified) [HS414]	2.1 nM
COc1c(O)cc2c3c1O[C@@]1(C)c4oc5ccccc5c4C[C@@]4(O)C(C2)N(CC2CC2)CCC314 (stereo partly specified) [NSC_0]	0.22 nM
C=CCN1CCC23c4c5ccc(O)c4OC2c2c(c4ccccc4n2C)C[C@@]3(OC)C1C5 (stereo partly specified) [HS531]	0.42 nM
Cc1cc(O)cc(C)c1C[C@H](N)C(=O)N1Cc2ccccc2C[C@H]1C(=O)O [(S)-2-((S)-2-amino-3-(4-hydroxy-2,6-dimethylphenyl)propanoyl)-1,2,3,4-tetrahydroisoquinoline-3-carboxylic acid] (HELM PEPTIDE1{[Cc1cc(O)cc(C)c1C[C@H](N)C(=O)[*:2]].[Tic]}$$$$V2.0)	13.1 nM
CCO[C@@]12Cc3c([nH]c4ccccc34)C3Oc4c(O)ccc5c4C31CCN(CC1CC1)C2C5 (stereo partly specified) [HS464]	0.11 nM
C=CCN(CC=C)[C@@H](Cc1ccc(O)cc1)C(=O)NC(C)(C)C(=O)NC(C)(C)C(=O)N[C@@H](Cc1ccccc1)C(=O)N[C@@H](CC(C)C)C(=O)O [NSC_107691] (HELM PEPTIDE1{[C=CCN(CC=C)[C@@H](Cc1ccc(O)cc1)C(=O)[*:2]].[Aib].[Aib].F.L}$$$$V2.0)	434 nM
Cc1cc(O)cc(C)c1C[C@H](N)C(=O)N1Cc2ccccc2C[C@H]1C(N)=O [H-Dmt-Tic-NH2] (HELM PEPTIDE1{[Cc1cc(O)cc(C)c1C[C@H](N)C(=O)[*:2]].[Tic].[am]}$$$$V2.0)	9.41 nM
Cc1cc(O)cc(C)c1C[C@@H](C(=O)N1Cc2ccccc2C[C@H]1C(N)=O)N(C)C	2.5 nM
CCO[C@@]12Cc3c(oc4ccccc34)C3Oc4c(O)ccc5c4C31CCN(CC1CC1)C2C5 (stereo partly specified) [HS510A]	0.12 nM
